Here are results for 21 compounds from US6117365A, “Phenolic acid amides of hydroxy-substituted benzylamines” (Haarmann & Reimer GmbH, priority 1997, dated 2000).

Assay [1] can be described thus: DPPH test for the removal of free radicals (activity as free-radical scavengers). The settings on record: for EC50 (effective relative concentration, c(test compound)/c(DPPH), at which 50% of the free radical DPPH had been removed): DPPH 100 μmol/l in methanol, absorption at 515 nm read until the decrease was less than 2% per hour. As to the method:
The activity of example compounds 1 to 16 as free-radical scavengers was compared with that of a traditional free-radical scavenger. The DPPH (1,1-diphenyl-2-picrylhydrazyl) test for the removal of free radicals was used.
DPPH was dissolved in methanol to a concentration of 100 μmol/l. A series of dilutions of the example compounds, vitamin C, α-tocopherol, BHT, ferulic acid and of the naturally occurring N-(2-[4-hydroxyphenyl]ethyl)-4-hydroxy-3-methoxy-E-cinnamamide were prepared in methanol. Methanol was used as the control. 2500 μl of the DPPH solution were mixed with 500 μl of each test solution and the decrease in absorption at 515 nm was read until the decrease was less than 2% per hour. The activity of the test substances as free-radical scavengers was calculated using the following equation:
Activity as free-radical scavenger (%)=100-(absorption of the test
compounds)/(absorption of the control)×100.
The activity as free-radical scavengers (%) in a series of dilutions of test compounds was used to calculate, for each test compound, the effective relative concentration EC50 (based on the starting concentration of DPPH, EC=c (test compound)/c(DPPH)) of a test compound, at which 50% of the free radical DPPH had been removed.
Background: The DPPH test is a chemical assay of radical scavenging.

The nature of assay [2]: accelerated autoxidation of lipids by air using a RANCIMAT apparatus (activity as antioxidants). Particulars: for AOI (antioxidative index) = IP(with test solution)/IP(control sample): 0.05% of test substance, soy bean oil, 100° C., dry air stream 20 l/h. The protocol:
The activity of example compounds 1 to 16 as antioxidants was compared with that of traditional antioxidants. The test system used was the accelerated autoxidation of lipids by air with or without antioxidant using a RANCIMAT apparatus (RANCIMAT is a registered trade mark of Metrohm AG, Herisau, Switzerland).
The example compounds, vitamin C, α-tocopherol, BHT, ferulic acid and the naturally occurring N-(2-[4-hydroxyphenyl]-ethyl)-4-hydroxy-3-methoxy-E-cinnamamide were dissolved in methanol or acetone, and 100 μl of each test solution were added to a 3 g pre-prepared oil sample (soy bean oil, purified over alumina type N). In a control sample, only solvent was added. A constant, dry air stream (20 l/h) was blown through the oil sample, which contained the test solution and was heated to 100° C., and the volatile oxidation products (predominantly short-chain fatty acids such as formic or acetic acid) were collected in a receiver containing water. The conductivity of this aqueous solution was continuously measured and recorded. The oxidation of (unsaturated) fats proceeds only very slowly for some time and then suddenly increases. The time to the increase is referred to as the induction period (IP).
The following equation was used to calculate the antioxidative index (AOI):
AOI=IP(with test solution) /IP(control sample)

The mark [3] stands for this setting: comparison in words with reference substances.

`Cc1cc(C(C)(C)C)c(O)c(C(C)(C)C)c1` [BHT, 2,6-di-tert-butyl-4-methylphenol, reference compound]: the “EC50 (effective relative concentration, c(test compound)/c(DPPH), at which 50% of the free radical DPPH had been removed)” value in assay [1] is on record as 0.240 mol/mol. Besides, the “AOI (antioxidative index) = IP(with test solution)/IP(control sample)” value in assay [2] was 4.77.
`COc1cc(/C=C/C(=O)NCc2ccc(O)c(O)c2)ccc1O` [Example 1, N-(3,4-Dihydroxybenzyl)-4-hydroxy-3-methoxy-E-cinnamamide]: in assay [1], the “EC50 (effective relative concentration, c(test compound)/c(DPPH), at which 50% of the free radical DPPH had been removed)” value is 0.1 mol/mol. The “AOI (antioxidative index) = IP(with test solution)/IP(control sample)” value in assay [2] is on record as 11.41.
For `COc1cc(/C=C/C(=O)NCc2ccc(O)c(O)c2)cc(OC)c1O` [Example 2, N-(3,4-Dihydroxybenzyl)-3,5-dimethoxy-4-hydroxy-E-cinnamamide] the same measures were 0.097 mol/mol and 7.58.
Consider `COc1cc(/C=C/C(=O)NCc2ccc(O)c(O)c2O)ccc1O` [Example 3, N-(2,3,4-Trihydroxybenzyl)-4-hydroxy-3-methoxy-E-cinnamamide], for which, in assay [1], the “EC50 (effective relative concentration, c(test compound)/c(DPPH), at which 50% of the free radical DPPH had been removed)” value worked out at 0.097 mol/mol. Also, in assay [2], the “AOI (antioxidative index) = IP(with test solution)/IP(control sample)” value was 11.7.
For `COc1cc(/C=C/C(=O)NCc2ccc(O)c(O)c2O)cc(OC)c1O` [Example 4, N-(2,3,4-Trihydroxybenzyl)-3,5-dimethoxy-4-hydroxy-E-cinnamamide] the same measures were 0.1 mol/mol and 17.3.
Take `COc1cc(/C=C/C(=O)NCc2cc(O)c(O)c(O)c2)ccc1O` [Example 5, N-(3,4,5-Trihydroxybenzyl)-4-hydroxy-3-methoxy-E-cinnamamide]: the “EC50 (effective relative concentration, c(test compound)/c(DPPH), at which 50% of the free radical DPPH had been removed)” value in assay [1] was found to be 0.0097 mol/mol. The “AOI (antioxidative index) = IP(with test solution)/IP(control sample)” value in assay [2] was found to be 21.4.
Consider `COc1cc(CC(=O)NCc2ccc(O)c(O)c2)ccc1O` [Example 6, N-(3,4-Dihydroxybenzyl)-4-hydroxy-3-methoxyphenylacetamide], for which the “EC50 (effective relative concentration, c(test compound)/c(DPPH), at which 50% of the free radical DPPH had been removed)” value in assay [1] is 0.103 mol/mol. Besides, the “AOI (antioxidative index) = IP(with test solution)/IP(control sample)” value in assay [2] came to 13.9.
With `COc1cc(CCC(=O)NCc2ccc(O)c(O)c2)ccc1O` [Example 7, N-(3,4-Dihydroxybenzyl)-3-(4-hydroxy-3-methoxyphenyl)-propanamide], the “EC50 (effective relative concentration, c(test compound)/c(DPPH), at which 50% of the free radical DPPH had been removed)” value in assay [1] worked out at 0.094 mol/mol. Also, the “AOI (antioxidative index) = IP(with test solution)/IP(control sample)” value in assay [2] is listed as 7.7.
In the same order, the values of `COc1cc(CNC(=O)CCc2ccc(O)c(O)c2)ccc1O` [Example 8, N-(4-Hydroxy-3-methoxybenzyl)-3-(3,4-dihydroxyphenyl)-proyanamide] are 0.119 mol/mol and 13.2.
Turning to `O=C(CCc1ccc(O)c(O)c1)NCc1ccc(O)c(O)c1` [Example 9, N-(3,4-Dihydroxybenzyl)-3-(3,4-dihydroxyphenyl)-propanamide], in assay [1], the “EC50 (effective relative concentration, c(test compound)/c(DPPH), at which 50% of the free radical DPPH had been removed)” value amounted to 0.07 mol/mol. Further, the “AOI (antioxidative index) = IP(with test solution)/IP(control sample)” value in assay [2] was 19.8.
For the compound `O=C(CCc1ccc(O)c(O)c1)NCc1ccc(O)c(O)c1O` [Example 10, N-(2,3,4-Trihydroxybenzyl)-3-(3,4-dihydroxyphenyl)-pronanamide], in assay [1], the “EC50 (effective relative concentration, c(test compound)/c(DPPH), at which 50% of the free radical DPPH had been removed)” value came out at 0.069 mol/mol. Further, the “AOI (antioxidative index) = IP(with test solution)/IP(control sample)” value in assay [2] was found to be 24.6.
In the same order, the values of `O=C(/C=C/c1ccc(O)c(O)c1)NCc1ccc(O)c(O)c1` [Example 11, N-(3,4-Dihydroxybenzyl)-3,4-dihydroxy-E-cinnamamide] are 0.043 mol/mol and 14.9.
For `COc1cc(CNC(=O)/C=C/c2ccc(O)c(O)c2)ccc1O` [Example 12, N-(4-Hydroxy-3-methoxybenzyl)-3,4-dihydroxy-E-cinnamamide], the “EC50 (effective relative concentration, c(test compound)/c(DPPH), at which 50% of the free radical DPPH had been removed)” value in assay [1] was 0.089 mol/mol. In assay [2], the “AOI (antioxidative index) = IP(with test solution)/IP(control sample)” value stood at 14.3.
In the same order, the values of `COc1cc(CNC(=O)/C=C/c2ccc(O)c(O)c2)cc(OC)c1O` [Example 13, N-(3,5-Dimethoxy-4-hydroxybenzyl)-3,4-dihydroxy-E-cinnamamide] are 0.1 mol/mol and 3.6.
`O=C(/C=C/c1ccc(O)c(O)c1)NCc1ccc(O)c(O)c1O` [Example 14, N-(2,3,4-Trihydroxybenzyl)-3,4-dihydroxy-E-cinnamamide]: the “EC50 (effective relative concentration, c(test compound)/c(DPPH), at which 50% of the free radical DPPH had been removed)” value in assay [1] turned out to be 0.054 mol/mol. Further, in assay [2], the “AOI (antioxidative index) = IP(with test solution)/IP(control sample)” value was found to be 27.5.
`COc1cc(CNC(=O)Cc2ccc(O)c(O)c2)ccc1O` [Example 15, N-(4-Hydroxy-3-methoxybenzyl)-3,4-dihydroxyphenylacetamide]: the “EC50 (effective relative concentration, c(test compound)/c(DPPH), at which 50% of the free radical DPPH had been removed)” value in assay [1] came to 0.105 mol/mol. Further, the “AOI (antioxidative index) = IP(with test solution)/IP(control sample)” value in assay [2] was determined as 7.84.
Take `O=C(Cc1ccc(O)c(O)c1)NCc1ccc(O)c(O)c1` [Example 16, N-(3,4-Dihydroxybenzyl)-3,4-dihydroxyphenylacetamide]: the “EC50 (effective relative concentration, c(test compound)/c(DPPH), at which 50% of the free radical DPPH had been removed)” value in assay [1] came to 0.053 mol/mol. The “AOI (antioxidative index) = IP(with test solution)/IP(control sample)” value in assay [2] came to 8.84.
In the same order, the values of `COc1cc(/C=C/C(=O)O)ccc1O` [Ferulic acid, ferulic acid, reference compound] are 0.350 mol/mol and 1.79.
For the compound `COc1cc(/C=C/C(=O)NCCc2ccc(O)cc2)ccc1O` [N-(2-[4-hydroxyphenyl]ethyl)-4-hydroxy-3-methoxy-E-cinnamamide, reference compound], the “EC50 (effective relative concentration, c(test compound)/c(DPPH), at which 50% of the free radical DPPH had been removed)” value in assay [1] is recorded as 0.441 mol/mol. Moreover, the “action as free-radical scavenger, in words” value in assay [1] (setting [3]) was “no better than α-tocopherol”. Moreover, the “AOI (antioxidative index) = IP(with test solution)/IP(control sample)” value in assay [2] is 1.41. Also, the “action as antioxidant, in words” value in assay [2] (setting [3]) is given as “no better than α-tocopherol”.
`O=C1O[C@H]([C@@H](O)CO)C(O)=C1O` [Vitamin C, L-ascorbic acid, reference compound]: in assay [1], the “EC50 (effective relative concentration, c(test compound)/c(DPPH), at which 50% of the free radical DPPH had been removed)” value was determined as 0.270 mol/mol. In addition, the “AOI (antioxidative index) = IP(with test solution)/IP(control sample)” value in assay [2] is given as 1.17.
For `Cc1c(C)c2c(c(C)c1O)CCC(C)(CCCC(C)CCCC(C)CCCC(C)C)O2` (stereo not drawn) [α-Tocopherol, α-tocopherol, reference compound] the same measures were 0.250 mol/mol and 5.05.
